For one assay, the target named is T1, recombinant human CLK3 (Homo sapiens, UniProt P49761).
T1 construct: purchased Thermo Fisher Scientific PV3826
Kind of assay: CLK3 kinase assay (LANCE Ultra). The class given is biochemical. The conditions noted are these: 0.5 nM CLK3, 300 μM ATP, 3 hours at 30° C. The method in brief:
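Recombinant human CLK3 (0.5 nM) phosphorylating ULight-CREBtide (50 nM) with 300 μM ATP for 3 h at 30 °C; stopped with EDTA, detected by LANCE Ultra TR-FRET using Eu-anti-phospho-CREB antibody (2 nM, 1 h). IC50 from sigmoidal 4-parameter fit.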
(In general: TR-FRET usually uses a lanthanide donor and a delayed reading to cut background.)

In another assay the test system is MDA-MB-231 cells. As to the kind of experiment: MDA-MB-231 proliferation assay. The class given is cell-based. The conditions noted are these: Homo sapiens, 72 hours, YO-PRO-1 readout. The method in brief:
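Cells seeded at 750/well in DMEM with 10% FBS, treated 72 h at 37 °C, 0.5% DMSO final. Cell number read by YO-PRO-1 fluorescence (485/530 nm), normalised to DMSO (100%) and time-of-addition cells (0%); 4-parameter logistic fit with maximum fixed at 100%.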

The subject of assay [1] is phospho-SRSF6 levels in MDA-MB-468 cells. Kind of assay: Inhibition of phospho-SRSF6 levels in MDA-MB-468 cells (Western blot). The class given is cell-based. The settings on record: Homo sapiens, 100 nM, 2 hours, normalized by GAPDH, read-out: % Intensity of p-SRSF6 signal at 100 nM compared to DMSO control. As for the experimental part:
FIG. 1: FIG. 1 provides a representative Western blot showing reduction of phosphorylated-SRSF6 (P-SRSF6) in MDA-MB 468 cells by compounds of the invention. GAPDH was probed for by Western blotting to control for equal protein loading and for normalization of samples. The numbers below the blots show percent intensity of P-SRSF6 signal at 100 nM compared to DMSO control.
Assessment of Inhibition of Phospho-SRSF6 Levels in MDA-MB-468 Cells
MDA-MB-468 cells (ATCC, HTB-132) were cultured in DMEM (BioConcept cat. no. 1-26F03) supplemented with 10% FBS (Sigma cat. no. F9665), 1% Na-pyruvate (Sigma cat. no. S8636), 1% Penicillin-Streptomycin (BioConcept cat. no. 4-01F00-H). When cells reached a density of 70% in 6-well plates (TPP cat. no. 92006), they were treated either with the test compound vehicle DMSO, or with experimental compounds at a final concentration of 100 nM for 2 hours. Thereafter, the culture medium was removed and cells were collected by scraping in Lysis Buffer (20 mM Tris HCl pH7.5, 150 mM NaCl, 1 mM EGTA, 1 mM EDTA, 1% Triton and 1% NP-40) containing protease and phosphatase inhibitors (Halt™ Protease&Phosphatase inhibitor cocktail 100× ThermoScientific cat. no. 1861281) and 1 mM PMSF (Fluka cat. no. 93482). Cleared lysates were stored in Eppendorf tubes at −80° C. until use, and protein concentration in lysates was determined using Pierce 660 nm Protein Assay Reagent (ThermoScientific cat. no. 22660). 20 μg proteins were diluted in 4× Laemmli buffer (Biorad cat. no. 161-0747) containing 10% beta-mercaptoethanol, separated by SDS-PAGE using 10% gels, and then transferred to PVDF membranes (Trans Blot Turbo Transfer Pack BioRad cat. no. 1704156) by Trans-Blot® Turbo™ System semidry blotting methodology (BioRad). Primary antibodies were incubated in TBS-0.1% Tween-20 buffer containing 3% BSA Bovine Albumin Fr.V (Millipore cat. no. 81-053-3) overnight at 4° C. The following primary antibodies were used: Mouse anti-phosphoepitope SR proteins clone 1H4 (Millipore cat. no. MABE50) diluted 1:5000, and rabbit anti-GAPDH clone 14C10 (Cell Signaling cat. no. 2118S) to control for equal protein loading, diluted 1:2000. HRP-conjugated secondary antibodies were incubated one hour at room temperature diluted 1:5000 in TBS-0.1% Tween-20 buffer containing 5% nonfat-dried bovine milk (Sigma cat. no. M7409). The following secondary antibodies were used: Goat anti-mouse-HRP (Jackson cat. no. 115-035-146) and goat anti-rabbit-HRP (Jackson cat. no. 111-035-144). Membranes were incubated with ECL Prime Western Blot Detection Reagent (Amersham cat. no. RPN2236) to detect specific signals using Fusion SOLO S device (Vilber Lourmat). Pixel intensity of the phopsho-SRSF6 (MW 55 kDa in reference to markers) and GAPDH (MW 37 kDa) signals in the Western blots were determined using Evolution-Capt image analysis software (v17.01, Vilber Lourmat). DMSO control was used to set the phospho-SRSF6 signal at baseline, phospho-SRSF6 signals for each sample were normalized by the respective GAPDH signals and percent intensity of P-SRSF6 signal at 100 nM compound compared to DMSO control was calculated (see FIG. 1).
In general terms: Immunoblotting shows a protein as a band on a membrane.

T1 sequence (P49761 whole entry): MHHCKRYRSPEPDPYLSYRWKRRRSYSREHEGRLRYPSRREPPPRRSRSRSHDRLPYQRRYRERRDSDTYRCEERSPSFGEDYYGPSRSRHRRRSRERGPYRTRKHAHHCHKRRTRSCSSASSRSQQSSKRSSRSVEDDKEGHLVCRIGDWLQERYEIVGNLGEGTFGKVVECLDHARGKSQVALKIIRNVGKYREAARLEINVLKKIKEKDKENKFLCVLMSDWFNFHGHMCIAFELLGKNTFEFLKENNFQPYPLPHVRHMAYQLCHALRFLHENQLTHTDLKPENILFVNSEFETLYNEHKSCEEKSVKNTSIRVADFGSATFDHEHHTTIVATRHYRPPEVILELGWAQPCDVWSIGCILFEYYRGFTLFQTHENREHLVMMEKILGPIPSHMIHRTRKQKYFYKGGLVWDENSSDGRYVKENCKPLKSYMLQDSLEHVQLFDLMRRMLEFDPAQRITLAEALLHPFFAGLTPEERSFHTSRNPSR

In the case of `C=C(c1ccc2c(c1)/C(=N\OC)C(C)(C)c1c(N)ncnc1-2)[C@H]1CC[C@H](N)CC1` [Example 4, (6Z)-8-[1-(trans-4-aminocyclohexyl)vinyl]-6-methoxyimino-5,5-dimethyl-benzo[h]quinazolin-4-amine], the IC50 at recombinant human CLK3 was 2.1 nM. Further, the GI50 in the assay on MDA-MB-231 cells was determined as 271 nM. For the same compound, the activity at 0.1 µM in assay [1] is 32%.
Take `COCCN1C[C@@H](CO/N=C2\c3cc(Br)ccc3-c3ncnc(N)c3C2(C)C)OC1=O` [Example 90, (5S)-5-[[(Z)-(4-amino-8-bromo-5,5-dimethyl-benzo[h]quinazolin-6-ylidene)amino]oxymethyl]-3-(2-methoxyethyl)oxazolidin-2-one]: the IC50 at recombinant human CLK3 was 9.37 nM. Moreover, the GI50 in the assay on MDA-MB-231 cells stood at 863 nM. Moreover, the activity at 0.1 µM in assay [1] came out at 29%.
The matching figures for `CC1(C)/C(=N/OCCO)c2cc(O[C@H]3CC[C@H](N)CC3)ccc2-c2ncnc(N)c21` [Example 19, 2-[(Z)-[4-amino-8-(trans-4-aminocyclohexoxy)-5,5-dimethyl-benzo[h]quinazolin-6-ylidene]amino]oxyethanol]: 20.2 nM, 445 nM and 25%.
The matching figures for `CC1(C)/C(=N/OCCO)c2cc(O[C@H]3CC[C@@H](N)CC3)ccc2-c2ncnc(N)c21` [Example 87, 2-[(Z)-[4-amino-8-(cis-4-aminocyclohexoxy)-5,5-dimethyl-benzo[h]quinazolin-6-ylidene]amino]oxyethanol]: 18.7 nM, 255 nM and 10%.
Taken in the same sequence, the figures for `COCCO/N=C1\c2cc(O[C@H]3CC[C@@H](N)CC3)ccc2-c2ncnc(N)c2C1(C)C` [Example 82, (6Z)-8-(cis-4-aminocyclohexoxy)-6-(2-methoxyethoxyimino)-5,5-dimethyl-benzo[h]quinazolin-4-amine] were 9.7 nM, 98.5 nM and 15%.
With `CC1(C)/C(=N/OC[C@@H]2CN(CCO)C(=O)O2)c2cc(Br)ccc2-c2ncnc(N)c21` [Example 91, (5S)-5-[[(Z)-(4-amino-8-bromo-5,5-dimethyl-benzo[h]quinazolin-6-ylidene)amino]oxymethyl]-3-(2-hydroxyethyl)oxazolidin-2-one], the IC50 on recombinant human CLK3 was 5.1 nM. The concentration for 50% growth inhibition (GI50) in the assay with MDA-MB-231 cells stood at 459 nM. In addition, the activity at 0.1 µM in assay [1] was found to be 15%.
The matching figures for `CC(F)(F)CCO/N=C1\c2cc(O[C@H]3CC[C@@H](N)CC3)ccc2-c2ncnc(N)c2C1(C)C` [Example 115, (6Z)-8-(cis-4-aminocyclohexoxy)-6-(3,3-difluorobutoxyimino)-5,5-dimethyl-benzo[h]quinazolin-4-amine]: 19.4 nM, 102 nM and 17%.
The matching figures for `C#CCO/N=C1\c2cc(O[C@H]3CC[C@H](N)CC3)ccc2-c2ncnc(N)c2C1(C)C` [Example 21, (6Z)-8-(trans-4-aminocyclohexoxy)-5,5-dimethyl-6-prop-2-ynoxyimino-benzo[h]quinazolin-4-amine]: 27.2 nM, 569 nM and 12%.
Consider `CC1(C)/C(=N/OC[C@@H]2CN(CCO)C(=O)O2)c2cc(I)ccc2-c2ncnc(N)c21` [Example 97, (5S)-5-[[(Z)-(4-amino-8-iodo-5,5-dimethyl-benzo[h]quinazolin-6-ylidene)amino]oxymethyl]-3-(2-hydroxyethyl)oxazolidin-2-one], for which, on recombinant human CLK3, the IC50 was found to be 1.7 nM. Besides, in the assay on MDA-MB-231 cells, the GI50 is 158 nM. The activity at 0.1 µM in assay [1] was determined as 21%.
The matching figures for `COc1ccc2c(c1)/C(=N\OCCCC#N)C(C)(C)c1c(N)ncnc1-2` [Example 6, 4-[(Z)-(4-amino-8-methoxy-5,5-dimethyl-benzo[h]quinazolin-6-ylidene)amino]oxybutanenitrile]: 32.1 nM, over 2000 nM and 41%.
For `N#CCCO/N=C1\c2cc(O[C@H]3CC[C@H](N)CC3)ccc2-c2ncnc(N)c2C12CCCC2` [Example 102, 3-[(Z)-[4-amino-8-(trans-4-aminocyclohexoxy)spiro[benzo[h]quinazoline-5,1′-cyclopentane]-6-ylidene]amino]oxypropanenitrile], the IC50 on recombinant human CLK3 came to 2.9 nM. Moreover, in the assay with MDA-MB-231 cells, the concentration for 50% growth inhibition (GI50) stood at 10.1 nM. Besides, the activity at 0.1 µM in assay [1] came out at 7%.
The matching figures for `CO/N=C1\c2cc(C[C@H]3CC[C@H](N)CC3)ccc2-c2ncnc(N)c2C1(C)C` [Example 74, (6Z)-8-[(trans-4-aminocyclohexyl)methyl]-6-methoxyimino-5,5-dimethyl-benzo[h]quinazolin-4-amine]: 4.8 nM, 255 nM and 28%.
Take `COCCO/N=C1\c2cc(O[C@H]3CC[C@H](N)CC3)ccc2-c2ncnc(N)c2C12CCCC2` [Example 99, (6Z)-8-(trans-4-aminocyclohexoxy)-6-(2-methoxyethoxyimino)spiro[benzo[h]quinazoline-5,1′-cyclopentane]-4-amine]: the IC50 at recombinant human CLK3 came to 5.8 nM. Also, the concentration for 50% growth inhibition (GI50) with MDA-MB-231 cells was 27.6 nM. Moreover, in assay [1], the activity at 0.1 µM came out at 17%.
Take `N#CCCO/N=C1\c2cc(O[C@H]3CC[C@@H](N)CC3)ccc2-c2ncnc(N)c2C12CCCC2` [Example 101, 3-[(Z)-[4-amino-8-(cis-4-aminocyclohexoxy)spiro[benzo[h]quinazoline-5,1′-cyclopentane]-6-ylidene]amino]oxypropanenitrile]: the IC50 at recombinant human CLK3 was determined as 1.2 nM. Moreover, the GI50 in the assay on MDA-MB-231 cells amounted to 4.5 nM. In addition, the activity at 0.1 µM in assay [1] came to 8%.
Taken in the same sequence, the figures for `CO/N=C1\c2cc(O[C@H]3CC[C@H](N)CC3)ccc2-c2ncnc(N)c2C1(C)C` [Example 1, (6Z)-8-(trans-4-aminocyclohexoxy)-6-methoxyimino-5,5-dimethyl-benzo[h]quinazolin-4-amine] were 9.1 nM, 407 nM and 19%.
For the compound `CC1(C)/C(=N/OC[C@@H]2CNC(=O)O2)c2cc(I)ccc2-c2ncnc(N)c21` [Example 93, (5S)-5-[[(Z)-(4-amino-8-iodo-5,5-dimethyl-benzo[h]quinazolin-6-ylidene)amino]oxymethyl]oxazolidin-2-one], the IC50 on recombinant human CLK3 came to 6.2 nM. Also, in the assay on MDA-MB-231 cells, the GI50 came out at 240 nM. The activity at 0.1 µM in assay [1] came to 19%.
The matching figures for `CC1(C)/C(=N/OCCC#N)c2cc(O[C@H]3CC[C@@H](N)CC3)ccc2-c2ncnc(N)c21` [Example 83, 3-[(Z)-[4-amino-8-(cis-4-aminocyclohexoxy)-5,5-dimethyl-benzo[h]quinazolin-6-ylidene]amino]oxypropanenitrile]: 4.9 nM, 96.2 nM and 9%.
Taken in the same sequence, the figures for `CC1(C)/C(=N/OCCCC#N)c2cc(O[C@H]3CC[C@H](N)CC3)ccc2-c2ncnc(N)c21` [Example 27, 4-[(Z)-[4-amino-8-(trans-4-aminocyclohexoxy)-5,5-dimethyl-benzo[h]quinazolin-6-ylidene]amino]oxybutanenitrile] were 16.1 nM, 269 nM and 26%.

The term IC50 denotes the concentration needed to halve the response being measured. Usually GI50 stands for the concentration that inhibits growth by half.

The record behind these values is patent publication US12583825B2, “Benzo[h]quinazolin-4-amine and thieno[3,2-h]quinazolin-4-amine derivatives for the treatment of cancer” (Redona Therapeutics, Inc., priority 2020, dated 2026).
